Counter-ions that a name gives are not always drawn.
What was measured:
5-Lipoxygenase = biological target: T1, 5-Lipoxygenase (Homo sapiens, UniProt P09917); experiment: Inhibition of 5-Lipoxygenase in Human Whole Blood (LTB4, calcium ionophore A23187); type: cell-based
T1 construct: from tissue; host or cells: whole blood of male human donors (endogenous enzyme of the leukocytes)
T1 sequence (P09917 1-674): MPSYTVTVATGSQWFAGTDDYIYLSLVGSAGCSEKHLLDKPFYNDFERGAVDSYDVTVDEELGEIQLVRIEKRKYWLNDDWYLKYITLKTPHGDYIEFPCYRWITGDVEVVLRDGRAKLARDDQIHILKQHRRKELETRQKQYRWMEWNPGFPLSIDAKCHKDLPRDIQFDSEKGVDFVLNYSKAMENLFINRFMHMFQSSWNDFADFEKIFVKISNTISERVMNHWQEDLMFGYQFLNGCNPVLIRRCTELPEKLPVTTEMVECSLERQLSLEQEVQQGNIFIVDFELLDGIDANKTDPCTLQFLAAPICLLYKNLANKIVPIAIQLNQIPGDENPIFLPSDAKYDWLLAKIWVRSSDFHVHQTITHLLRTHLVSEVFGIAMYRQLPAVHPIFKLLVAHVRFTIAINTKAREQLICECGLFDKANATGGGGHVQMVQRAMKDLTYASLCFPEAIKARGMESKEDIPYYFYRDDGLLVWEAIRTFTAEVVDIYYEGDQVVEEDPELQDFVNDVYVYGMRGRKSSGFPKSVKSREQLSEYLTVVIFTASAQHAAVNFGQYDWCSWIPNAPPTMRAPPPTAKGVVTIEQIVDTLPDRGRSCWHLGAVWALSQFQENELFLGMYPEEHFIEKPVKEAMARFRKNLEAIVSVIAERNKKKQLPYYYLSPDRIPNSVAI
Method: 1. Inhibition of 5-Lipoxygenase in Human Whole Blood
Blood is obtained in 50-100 ml quantities from male donors. White blood cell counts and differentials are made. Two ml of blood are placed in a 15 ml polypropylene test tube. Test compounds are solubilized in dimethylsulfoxide and diluted in 1:10 in 10% bovine serum albumin in phosphate buffered saline, pH 7.4 resulting in a final dimethylsulfoxide concentration of 0.1% in the blood. Then, solutions of test compounds are added to the blood in a shaking water bath at 37° C. for 10 minutes prior to the addition of 30 μM calcium ionophore (A23187, Sigma). After ionophore administration, whole blood samples are mixed and incubated for 20 minutes at 37° C. in a shaking water bath. Incubation is terminated by placing samples in an ice bath and immediately adding ethylene glycol-bis-(β-aminoethyl ether)-N, N,N',N'-tetraacetic acid (10 mM). Samples are mixed and centrifuged at 1200× g for 15 minutes at 4° C. Preparation of samples for evaluation by RIA or ELISA is carried out by the following protocol. Plasma is removed from sample tubes, placed in 15 ml polypropylene test tubes containing 8 ml methanol, and then vortexed to precipitate protein. Samples are stored at -70° C. overnight. The next day, samples are centrifuged at 200× g for 15 minutes at 4° C. to pellet the precipitate. Samples are dried in a Savant SpeedVac Concentrator, Model SVC 200H, reconstituted to original volume with ice cold RIA or ELISA buffer, and stored at -70° C. until assayed. The assay for eicosanoids (LTB4, T×B2, and PGE2) is performed as described by the manufacturer of the ^3 H!-RIA kit or ELISA kit (LTB4 -Amersham, T×B2 and PGE2 -Caymen Chemical).
The total eicosanoid level in 2 ml of blood is calculated and reported as ng/10^6 neutrophils. Significance is determined by a one-way analysis of variance with least significant difference (LSD) comparisons to control (p≤0.05) and IC50 's (μM) are determined by regression analysis (Finney, 1978). Drug effects are expressed as percent change from control values.

[1] = test system: LT-dependent bronchoconstriction; experiment: Inhibition of Bronchoconstriction in Guinea Pigs Induced by Exogenously Administered Antigen (ovalbumin); type: in vivo, Male guinea pigs; details: Cavia porcellus, iv, 5 min; 10 mg/kg
Method: 4. Inhibition of Brochoconstriction in Guinea Pigs Induced by Exogenously Administered Antigen
Male guinea pigs (Charles River, Wilmington, Mass.) were sensitized 3-4 weeks prior to antigen challenge by administration of 2 i.m. injections of ovalbumin, 1 into each hind limb (35 mg total). Sensitized animals (500-600 g) were fasted overnight prior to experimentation. Conscious animals were then dosed p.o. with drug or vehicle alone (0.5% Tween 80 in H2 O) at the indicated times prior to antigen challenge, or anesthetized animals were dosed i.v. with drug or vehicle alone (DMSO) 5 min prior to antigen challenge. Animals were anesthetized by urethane (2.8 g/kg i.p.). A carotid artery and jugular vein were cannulated to allow for the monitoring of blood pressure and the administration of drugs, respectively. The trachea was then cannulated and connected to a Harvard Apparatus rodent ventilator (S. Natick, Mass). Spontaneous respiration was abolished by the administration of succinylcholine (2.5 mg/kg i.v.). The animals were then ventilated with room air at a rate of 65 breaths per min. Airway inflation pressure was measured using a Statham pressure transducer (Gould Instruments, Cleveland, Ohio) connected to the tracheal cannula via a side-arm and recorded on a Grass Instruments recorder (Quincy, Mass). The tidal volume (approximately 10 cc/kg) was adjusted to give a baseline inflation pressure of 8-10 cm H2 O at end inspiration. Animals were then allowed 20 min to stabilize.
Following the stabilization period, animals were given i.v. injections of pyrilamine (5 mg/kg), propranolol (0.1 mg/kg) and indomethacin (10 mg/kg) at 15, 10 and 5 min, respectively, prior to antigen challenge. This pretreatment results in an LT-dependent bronchoconstriction following antigen challenge, which was accomplished by i.v. administration of ovalbumin (10 mg/kg). Only one bronchoconstriction per animal was induced. End-inspiratory inflation pressure (in cm H2 O over baseline) was measured at 5 min post-antigen challenge. A mean value and standard error for the % inhibition of control bronchoconstriction in each drug-treated group was then calculated.

Lipoxygenase = experiment: Ex-Vivo Measurement of Lipoxygenase Inhibition in Orally Dosed Rats (LTB4 in A23187-stimulated blood); design: species or system Male Sprague Dawley rats; details: 10 mg/kg, p.o.; pretreatment period 6 hr
Method: 2. Ex-Vivo Measurement of Lipoxygenase Inhibition in Orally Dosed Rats
After an interval of 3 or 6 hours, the rats were anesthetized with metofane (n=4/group) and blood collected in heparinized tubes. White blood cell counts and differentials were made. One ml of blood from each animal was placed in a 5 ml plastic tube in a shaker bath at 37° C. A23187 at a final concentration of 10 μM was added to the blood and the blood vortexed and incubated for 15 min at 37° C. with gentle shaking. Incubation was terminated by vortexing sample and centrifuging immediately at 1200× G for 15 min at 4° C. The plasma was transferred to 15 ml plastic tubes each containing 8 ml of methanol to precipitate protein followed by vortexing. The samples were stored at -70° C. overnight and the next day the samples were centrifuged at 800× G for 15 min to pellet the precipitate. The samples were dried in a Savant SpeedVac Concentrator Model SVC 200H and reconstituted to the original volume with cold RIA or ELISA buffer. The reconstituted samples were stored at -70° C. until assayed. The assay for LTB4 was performed according to the directions of the ^3 H!RIA kit or ELISA kit (Seragen). The total metabolite level in 1 ml of blood is calculated and reported as ng/10^6 neutrophils. Significance is determined by a one-way analysis of variance with LSD comparisons to control (p≤0.05).

SMILES	inhibition at 1 µM (5-Lipoxygenase)	inhibition at 10 µM (5-Lipoxygenase; 10 μM)	inhibition in vivo at 10 mg/kg [1]	also measured
NC(=O)N(O)Cc1ccc(OCc2coc(-c3ccc(C(F)(F)F)cc3)n2)cc1 [Example 11, 1-Hydroxy-1-4-2-(4-trifluoromethyl-phenyl)-oxazol-4-ylmethoxy!-benzyl!-urea]	32%	–	–	% Inhibition of LTB4 (Lipoxygenase): 68%
NC(=O)N(O)Cc1ccc(OCc2csc(-c3ccc(C(F)(F)F)cc3)n2)cc1 [Example 12, 1-Hydroxy-1-4-2-(4-trifluoromethyl-phenyl)-thiazol-4-yl-methoxy!-benzyl!urea]	56%	–	30%	–
O=C(Nc1ccc(F)cc1)N(O)Cc1ccc(OCc2csc(-c3ccc(C(F)(F)F)cc3)n2)cc1 [Example 13, 3-(4-Fluoro-phenyl)-1-hydroxy-1-4-2-(4-trifluoromethyl-phenyl)-thiazol-4-ylmethoxy!-benzyl!-urea]	38%	–	–	–
NC(=S)N(O)Cc1ccc(OCc2csc(-c3ccc(Cl)cc3)n2)cc1 [Example 15, 1-Hydroxy-1-4-2-(4-chloro-phenyl)-thiazol-4-ylmethoxy!-benzyl!-thiourea]	57%	–	21%	–
CCCCCCNC(=O)N(O)Cc1ccc(OCc2csc(-c3ccc(Cl)cc3)n2)cc1 [Example 16, 1-4-2-(4-chloro-phenyl)-thiazol-4-ylmethoxy!-benzyl!-3-hexyl-1-hydroxy-urea]	–	36%	–	–
COc1ccc(-c2nc(COc3ccc(CN(O)C(N)=O)cc3)cs2)cc1 [Example 17, 1-Hydroxy-1-4-2-(4-methoxy-phenyl)-thiazol-4-ylmethoxy!-benzyl!-urea]	56%	–	50%	% Inhibition of LTB4 (Lipoxygenase): 69%
Cc1oc(-c2ccccc2)nc1COc1ccc(C(O)CN(O)C(N)=O)cc1 (stereo not shown) [Example 18, 1-Hydroxy-1-2-hydroxy-2-4-(5-methyl-2-phenyl-oxazol-4-ylmethoxy)-phenyl!-ethyl!-urea]	–	86%	–	–
NNC(=O)N(O)Cc1ccc(OCc2csc(-c3ccccc3)n2)cc1 [Example 21, 4-Hydroxy-4-4-(2-phenyl-thiazol-4-ylmethoxy)-benzyl!-semicarbazide]	–	94%	–	–
NNC(=O)N(O)Cc1ccc(OCc2csc(-c3ccccc3)n2)cc1 [Example 22, 4-Hydroxy-4-4-(2-phenyl-thiazol-4-ylmethoxy)-benzyl!-semicarbazide hydrochloride]	–	–	–	% Inhibition of LTB4 (5-Lipoxygenase; 10 μM, hydrochloride): 80%

Continued, in another order:

inhibition at 1 µM (5-Lipoxygenase)	inhibition at 10 µM (5-Lipoxygenase; 10 μM)	SMILES	inhibition in vivo at 10 mg/kg [1]	also measured
74%	–	Cc1oc(-c2ccc(OCC(F)(F)F)cc2)nc1COc1ccc(CN(O)C(N)=O)cc1 [Example 7, 1-Hydroxy-1-4-5-methyl-2-(4-trifluoroethoxy-phenyl)-oxazol-4-ylmethoxy!-benzyl!-urea]	24%	–
–	57%	Cc1oc(-c2ccccc2)nc1COc1ccc(C(C)N(O)C(N)=O)cc1 (stereo not shown) [Example 8, 1-Hydroxy-1-1- -4(5-methyl-2-phenyl-oxazol-4-ylmethoxy)-phenyl!-ethyl!-urea]	–	–
–	50%	Cc1oc(-c2ccc(C(F)(F)F)cc2)nc1COc1ccc(CN(O)C(=O)NN)cc1 [Example 19, 4-Hydroxy-4-4-5-methyl-2-(4-trifluoromethyl-phenyl)-oxazol-4-ylmethoxy!-benzyl!-semicarbazide]	–	–
–	78%	CC(C)=NNC(=O)N(O)Cc1ccc(OCc2nc(-c3ccc(C(F)(F)F)cc3)oc2C)cc1 [Example 20, 1-Isopropylidine-4-hydroxy-4-4-5-methyl-2-(4-trifluoromethylphenyl)oxazol-4-ylmethoxy!-benzyl!-semicarbazone]	–	–

Source: patent US5504097A, “N-hydroxyureas as 5-lipoxygenase inhibitors and inhibitors of oxidative modification of low density lipoprotein” (American Home Products Corporation, priority 1995, dated 1996)
